Assay results taken from patent US20250332178A1, “METHODS OF TREATING MYCOBACTERIAL INFECTIONS USING TETRACYCLINE COMPOUNDS” (priority 2018, published 2025).
Converted amounts (≈) assume the structure as drawn.

Tests used:
M. avium = assay: MIC (CLSI broth dilution), slow-growing NTM isolates; assay type: cell-based
M. chimaera = assay: as above; assay type: cell-based
M. intracellulare = assay: as above; assay type: cell-based
[1] = in vivo; cited from earlier work
[2] = daily; previously shown (Bax et al.); cited from earlier work

## NCC[C@H](O)C(=O)N[C@@H]1C[C@H](N)[C@@H](O[C@H]2O[C@H](CN)[C@@H](O)[C@H](O)[C@H]2O)[C@H](O)[C@H]1O[C@H]1O[C@H](CO)[C@@H](O)[C@H](N)[C@H]1O [Amikacin, amikacin]
M. avium; isolate 1, MAC
  MIC: 32 µg/mL (≈ 54.6 µM)
M. avium; isolate 2, MAC
  MIC: 16 µg/mL (≈ 27.3 µM)
M. avium; isolate 3, MAC
  MIC: 8 µg/mL (≈ 13.7 µM)
M. chimaera; isolate 4, MAC
  MIC: 8 µg/mL (≈ 13.7 µM)
M. chimaera; isolate 5, MAC
  MIC: 8 µg/mL (≈ 13.7 µM)
M. intracellulare; isolate 6, MAC
  MIC: 8 µg/mL (≈ 13.7 µM)
M. intracellulare; isolate 7, MAC
  MIC: 8 µg/mL (≈ 13.7 µM)
M. intracellulare; isolate 8, MAC
  MIC: 16 µg/mL (≈ 27.3 µM)
M. intracellulare; isolate 9, MAC
  MIC: 16 µg/mL (≈ 27.3 µM)
M. intracellulare; isolate 10, MAC
  MIC: 16 µg/mL (≈ 27.3 µM)

## CN(C)c1cc(CNCC(C)(C)C)c(O)c2c1C[C@H]1C[C@H]3C(N(C)C)C(O)=C(C(N)=O)C(=O)[C@@]3(O)C(O)=C1C2=O (stereo partly drawn) [Omadacycline, (4aS,5aR,12aS)-4,7-bis(dimethylamino)-3,10,12,12a-tetrahydroxy-9-((neopentylamino)methyl)-1,11-dioxo-1,4,4a,5,5a,6,11,12a-octahydrotetracene-2-carboxamide]
[1]
  24-hour area under the curve compared to tigecycline: approximately three-fold higher

## CN(C)c1cc(NC(=O)CNC(C)(C)C)c(O)c2c1C[C@H]1C[C@H]3[C@H](N(C)C)C(O)=C(C(N)=O)C(=O)[C@@]3(O)C(O)=C1C2=O [Tigecycline, tigecycline]
[2]
  decline in concentration: 80%
